Tests used:
α-adrenergic receptor = experiment: α-Adrenergic receptor blocking activity in isolated rabbit aortic strip, norepinephrine as agonist; assay type: cell-based; conditions: contractile response
Protocol: α-Adrenergic receptor blocking activity was determined in vitro by performing cumulative dose-response experiments in the isolated rabbit aortic strip preparation using norepinephrine as the agonist. The contractile response of the rabbit strip preparation in the presence of logarithmically increasing concentrations of the compounds being tested were expressed as percent of the maximal attainable response.

[1] = test system: spontaneously hypertensive rats (SHR); experiment: Antihypertensive activity in spontaneously hypertensive rats, systolic blood pressure by tail cuff; assay type: in vivo, rat; conditions: oral dose of 50 mg/kg
Protocol: Antihypertensive activity was determined in spontaneously hypertensive rats (SHR) of the Okomotor Aoki strain. Systolic blood pressure of the SHR was measured from the caudal artery by means of an indirect method utilizing a photocell transducer/tail cuff occluder system. Time response relationships were determined for each compound following an oral dose of 50 mg/kg. Data were expressed as mm Hg decrease from control values. Statistical significance was determined using a 2 tailed "t" test comparing drug treatment response values to those obtained from concurrent vehicle treated animals.

β-adrenergic receptor [2] = target: T1, β-adrenergic receptor (Cavia porcellus, UniProt H0W3H1); experiment: β-Adrenergic receptor blocking activity in isolated guinea pig atria, isoproterenol as agonist; assay type: cell-based; conditions: isolated guinea pig atria; agonist isoproterenol; increase in rate; read-out: pA2 for β-adrenergic receptor blocking activity (converted)
T1 construct: isolated guinea pig atria preparation; from tissue; host or cells: guinea pig atria (isolated)
Protocol: (§1) β-Adrenergic receptor blocking activity was determined in vitro by performing cumulative dose-response experiments in the isolated guinea pig atria preparation using isoproterenol as the agonist. The response (increase in rate) of the guinea pig atria preparation in the presence of logarithmically increasing concentration of the compounds being tested were expressed as percent of the maximal attainable response. Relative antagonistic potency was expressed as a pA2 value, as defined above.

β-adrenergic receptor [3] = experiment: as above; assay type: cell-based; conditions: from pA2 values, guinea pig atria (β) vs rabbit aortic strip (α)
Protocol: as §1

T1 sequence (H0W3H1 1-470): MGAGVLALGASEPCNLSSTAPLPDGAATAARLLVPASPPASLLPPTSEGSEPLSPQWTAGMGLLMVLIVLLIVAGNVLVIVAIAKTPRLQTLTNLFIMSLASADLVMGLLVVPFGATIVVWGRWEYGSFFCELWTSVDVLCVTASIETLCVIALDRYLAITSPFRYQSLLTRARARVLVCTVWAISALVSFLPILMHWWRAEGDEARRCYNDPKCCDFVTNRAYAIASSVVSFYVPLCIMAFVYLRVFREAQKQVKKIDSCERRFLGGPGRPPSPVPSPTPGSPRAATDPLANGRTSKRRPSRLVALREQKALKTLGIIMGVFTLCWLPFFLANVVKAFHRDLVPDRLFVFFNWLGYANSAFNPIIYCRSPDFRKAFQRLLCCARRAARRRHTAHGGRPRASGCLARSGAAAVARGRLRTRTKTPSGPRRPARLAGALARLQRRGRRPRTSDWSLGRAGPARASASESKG

Compound	pA2 for α-adrenergic receptor blocking activity (α-adrenergic receptor)	decrease in systolic blood pressure from control values ([1]; after 1 hour)	decrease in systolic blood pressure from control values ([1]; after 4 hours)	Kb (β-adrenergic receptor [2])	ratio of β/α blocking activity (β-adrenergic receptor [3])
CC(C)NCC(O)COc1cccc2ccccc12 (stereo not shown) [propranolol]	< 5	did not lower blood pressure significantly	did not lower blood pressure significantly	–	–
Cc1ccc(N(CC2=NCCN2)c2cccc(O)c2)cc1 [phentolamine]	–	62 mm Hg	60 mm Hg	> 10000 nM	–
COc1ccc(C(O)CNC(C)CCc2ccc3c(c2)OCO3)cc1C(N)=O.Cl (stereo not shown) [compound 1, 5-[2-[[3-(1,3-Benzodioxol-5-yl)-1-methylpropyl]amino]-1-hydroxyethyl]-2-methoxybenzamide hydrochloride]	5.14	42 mm Hg	67 mm Hg	3.47 nM	> 2089
CC(CCc1ccc2c(c1)OCO2)NCC(O)c1ccc(O)c(C(N)=O)c1.Cl (stereo not shown) [compound 2, 5-[2-[[3-(1,3-benzodioxol-5-yl)-1-methylpropyl]amino]-1-hydroxyethyl]-2-hydroxybenzamide hydrochloride]	6.08	71 mm Hg	64 mm Hg	15.1 nM	55

Reference: patent publication US4221808A, “Novel antihypertensive agent” (Richardson-Merrell Inc., priority 1979, dated 1980)
